Each structure is given as a SMILES string. Structures can show the parent of a compound that is named as a salt.

The values that follow come from BindingDB's records for doi:10.1016/0960-894X(96)00211-9 (1996).

The nature of one assay: Compound was tested for inhibitory activity against Endothelin-converting enzyme isolated from guinea pig lung membrane.
`CC(C)CC(CP(O)(O)=C(Cc1ccc2ccccc2c1)NC(=O)OCc1ccccc1)C(=O)N[C@@H](Cc1c[nH]c2ccccc12)C(=O)O` (stereo partly drawn) [(S)-2-{2-[(1-Benzyloxycarbonylamino-2-naphthalen-2-yl-ethyl)-hydroxy-phosphinoylmethyl]-4-methyl-pentanoylamino}-3-(1H-indol-3-yl)-propionic acid; Disodium salt] registered a half-inhibitory concentration (IC50) of 3300 nM.

The nature of the next assay: Inhibition of Endothelin-converting enzyme of guinea pig lung membrane.
`CC(C)CC(NC(=O)[C@H](CCCCNC(=O)OCc1ccccc1)NS(C)(=O)=O)=P(O)(O)CC(CC(C)C)C(=O)N[C@@H](Cc1c[nH]c2ccccc12)C(=O)O` (stereo partly drawn) [(S)-2-(2-{[1-((S)-6-Benzyloxycarbonylamino-2-methanesulfonylamino-hexanoylamino)-3-methyl-butyl]-hydroxy-phosphinoylmethyl}-4-methyl-pentanoylamino)-3-(1H-indol-3-yl)-propionic acid; Disodium salt]: 40 nM corresponded to half-maximal inhibition (IC50). The compound `CC(C)CC(CP(O)(O)=C(Cc1ccccc1)NC(=O)[C@H](CC(C)C)NC(=O)OCc1ccccc1)C(=O)N[C@@H](Cc1c[nH]c2ccccc12)C(=O)O` (stereo partly drawn) [(S)-2-(2-{[1-((S)-2-Benzyloxycarbonylamino-4-methyl-pentanoylamino)-2-phenyl-ethyl]-hydroxy-phosphinoylmethyl}-4-methyl-pentanoylamino)-3-(1H-indol-3-yl)-propionic acid; Disodium salt] returned an IC50 of 160 nM. The compound `CC(C)C(CP(O)(O)=C(Cc1ccc2ccccc2c1)NC(=O)[C@H](CCCCNC(=O)OCc1ccccc1)NS(C)(=O)=O)C(=O)N[C@@H](Cc1c[nH]c2ccccc12)C(=O)O` (stereo partly drawn) [(S)-2-(2-{[1-((S)-6-Benzyloxycarbonylamino-2-methanesulfonylamino-hexanoylamino)-2-naphthalen-2-yl-ethyl]-hydroxy-phosphinoylmethyl}-3-methyl-butyrylamino)-3-(1H-indol-3-yl)-propionic acid; Disodium salt] gave an IC50 of 800 nM. `CC(C)CC(CP(O)(O)=C(Cc1ccc2ccccc2c1)NC(=O)[C@H](CCCCN)NS(C)(=O)=O)C(=O)N[C@@H](Cc1c[nH]c2ccccc12)C(=O)O` (stereo partly drawn) [(S)-2-(2-{[1-((S)-6-Amino-2-methanesulfonylamino-hexanoylamino)-2-naphthalen-2-yl-ethyl]-hydroxy-phosphinoylmethyl}-4-methyl-pentanoylamino)-3-(1H-indol-3-yl)-propionic acid; Disodium salt] yielded an IC50 of 65 nM. `CC(C)C(CP(O)(O)=C(Cc1ccccc1)NC(=O)[C@H](CCCCNC(=O)OCc1ccccc1)NS(C)(=O)=O)C(=O)N[C@@H](Cc1c[nH]c2ccccc12)C(=O)O` (stereo partly drawn) [(S)-2-(2-{[1-((S)-6-Benzyloxycarbonylamino-2-methanesulfonylamino-hexanoylamino)-2-phenyl-ethyl]-hydroxy-phosphinoylmethyl}-3-methyl-butyrylamino)-3-(1H-indol-3-yl)-propionic acid; Disodium salt] displayed an IC50 of 390 nM.
